How the values were obtained:
SK-BR-3 [1] = assay: Dark and light-activated (UVA) cytotoxicity, MTT; assay type: cell-based, human; settings: Homo sapiens, SK-BR-3, light or radiation study; irradiation with UVA (2.0 J cm^−2); HER2+ breast cancer
Method: (§1) The selected compounds were screened for their IC50 values against both HER2+ breast cancer (SK-BR-3), and HER2− breast cancer (MDA-MB-231) in both dark and light-activated conditions (Table 2). Additionally, a negative control study was also performed with SK-BR-3 and MDA-MB-231 cells in the absence of tested compound under UVA irradiation (See Fig S7., Supporting Information).
(§2) SK-BR-3 and MDA-MB-231 cells were seeded into 96-well cell culture plates at 5 × 10^3 cells/well and incubated for 24 h at 37 °C under 5% CO2. After that, the cells were treated with 50 μM of psoralen derivatives in DMEM with 10% FBS and the cells were continued incubation for another 4 h. After incubation, the cells were washed with PBS (3 times) and then irradiated by a 365 nm lamp with the light intensity of 2.0 J cm^−2 for 12.5 min before re-incubation for another 72 h. After incubation, the cell was treated with methylthiazolyldiphenyl-tetrazolium bromide (MTT reagent 200 μL, 0.5 mg mL^−1, Sigma-Aldrich) for 2 h. After reagent removal, DMSO was added to dissolve the formazan product and the cell viabilities were determined through UV–Vis absorption of the resulting formazan at wavelength 560 nm using a microplate reader (BMG Labtech/SPECTROstar Nano). The cell morphology images were captured by using a light microscope (Microscope Nikon, inverted digital) at 20X magnification prior to treating with MTT reagent.

MDA-MB-231 [2] = assay: Dark and light-activated (UVA) cytotoxicity, MTT; assay type: cell-based; settings: Homo sapiens, MDA-MB-231, light or radiation study; irradiation with UVA (2.0 J cm^−2); HER2− breast cancer
Method: as §1, §2

MDA-MB-231 [3] = assay: Dark and light-activated (UVA) cytotoxicity, MTT; assay type: cell-based; settings: Homo sapiens, dark, HER2− breast cancer
SK-BR-3 [4] = assay: Dark and light-activated (UVA) cytotoxicity, MTT; assay type: cell-based; settings: Homo sapiens, dark, HER2+ breast cancer
aromatase (CYP19) = target: T1, aromatase (CYP19) (Homo sapiens, UniProt P11511); assay: Inhibition of aromatase (AIA); assay type: biochemical; settings: for inhibition at 12.5 µM: I = %inhibition lower than 50%, read-out: Aromatase inhibitory activity %Inhibition
T1 sequence (P11511 1-503): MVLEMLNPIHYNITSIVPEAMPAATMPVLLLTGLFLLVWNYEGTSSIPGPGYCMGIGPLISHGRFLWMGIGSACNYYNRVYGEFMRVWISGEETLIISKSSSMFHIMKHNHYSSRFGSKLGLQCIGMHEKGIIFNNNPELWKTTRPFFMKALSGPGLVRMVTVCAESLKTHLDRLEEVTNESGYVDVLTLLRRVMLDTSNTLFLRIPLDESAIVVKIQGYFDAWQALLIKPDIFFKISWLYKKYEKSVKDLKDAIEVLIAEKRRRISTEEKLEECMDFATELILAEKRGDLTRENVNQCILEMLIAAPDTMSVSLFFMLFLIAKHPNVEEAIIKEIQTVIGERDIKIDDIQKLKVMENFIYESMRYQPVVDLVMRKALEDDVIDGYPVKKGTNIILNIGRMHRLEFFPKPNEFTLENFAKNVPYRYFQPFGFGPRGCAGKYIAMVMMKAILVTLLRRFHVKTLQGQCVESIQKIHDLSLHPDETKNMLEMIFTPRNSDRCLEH
Method: Estrogens are the critical risk factor for breast cancer initiation and progression and the aromatase enzyme involves in the final step conversion of androgens to estrogens[21],[22]. […] In this study, the synthesized psoralen derivatives were also tested for aromatase inhibitory activity (AIA) which is considered to be one of chemopreventive mechanisms for hormone dependent breast cancer.
Inhibition of the aromatase was performed using the method designed by Stresser et al.[39].

SK-BR-3 cells = assay: Cell morphology by light microscope; assay type: cell-based, human; settings: 48 h; for morphology of SK-BR-3 cells under light activation: UVA 2.0 J cm^−2
Method: as §2, with “After incubation, the cells were washed with PBS (3 times) and then irradiated by a 365 nm lamp with the light intensity of 2.0 J cm^−2 for 12.5 min before re-incubation for another 72 h.” left out

MDA-MB-231 [5] = assay: MTT cytotoxicity, 48 h, without UVA; assay type: cell-based; settings: Homo sapiens, MDA-MB-231, light or radiation study; for inhibition at 50 µg/mL: I = %inhibition lower than 50%, read-out: Cytotoxic activity MDA-MB-231 %Inhibition; for IC50: hormone-independent breast cancer, read-out: Cytotoxic activity MDA-MB-231 IC50
Method: (§3) MDA-MB-231 (triple-negative breast cancer) was obtained from M.D. Anderson Cancer Center, Houston, TX, USA). T47-D (hormone-dependent breast carcinoma), SK-BR-3 (human HER2+ breast cancer), and MRC-5 (normal embryonic lung fibroblast) were obtained from the American Type Culture Collection (ATCC, Manassas, VA, USA).
(§4) The cytotoxic effect of tested compounds was evaluated in two breast cancer cell lines, MDA-MB-231 and T47-D. Number of survival cells after exposure to tested compounds for 48 h was determined by MTT assay, as previously described.

[6] = tested on: differentiated HL-60 cells; assay: Inhibition of TPA-induced superoxide anion radical generation (HL-60 Antioxidant); assay type: cell-based, human; settings: screening concentration 100 µM; for inhibition at 100 µM: Homo sapiens, HL-60, read-out: HL-60 Antiox. %Inh
Excerpt: Inhibition of 12-O-tetradecanoylphorbol-13-acetate (TPA)-induced superoxide anion radical generation in differentiated HL-60 cells (HL-60 Antioxidant) TPA-induced superoxide anion radical formation was detected in differentiated HL-60 cells by photometric determination of cytochrome c reduction as previously described by Gerhäuser et al., 2003.ii Superoxide dismutase (SOD;15U) was a positive control. […]

[7] = Scavenging of diphenyl-picryl-hydrazyl radicals (DPPH); settings: for DPPH %Inh: screening concentration 250 µM; for IC50: read-out: DPPH IC50
Excerpt: 1. Chemoprevention activity

T47-D = assay: MTT cytotoxicity, 48 h, without UVA; assay type: cell-based, human; settings: for inhibition at 50 µg/mL / IC50: Homo sapiens, T47D, light or radiation study, 48 h, without UVA; for inhibition at 50 µg/mL: I = %inhibition lower than 50%, read-out: Cytotoxic activity T47-D %Inhibition; for IC50: hormone-dependent breast cancer, read-out: Cytotoxic activity T47-D IC50; for Selectivity Index (SI): SI = IC50 for MRC-5/IC50 for T47-D
Method: Additionally, the cytotoxicity towards normal cells, human embryonal lung fibroblast cell MRC-5 was also assessed.
as §3, §4

xanthine oxidase = xanthine oxidase (Homo sapiens, UniProt P47989); assay: Inhibition of xanthine oxidase (IXO); assay type: biochemical; settings: for inhibition at 500 µM: screening concentration 500 µM, read-out: IXO %Inh
Method: 1. […]
Inhibition of xanthine oxidase (IXO)
Xanthine oxidase activity was determined by quantifying the amount of uric acid produced
from xanthine. […]

[8] = Inhibition of superoxide radical formation by xanthine/xanthine oxidase (XXO); assay type: biochemical; settings: for IC50: read-out: XXO IC50; for XXO %Inh: screening concentration 500 µM
Excerpt: 1. […]

[9] = tested on: ERα activity in MCF-7 cells; parameters: method as in PMID 31673107; settings: read-out: IC50 antagonism of ERα activity in MCF-7 cells; cited from earlier work

Chain of xanthine oxidase (P47989 whole entry, species assumed): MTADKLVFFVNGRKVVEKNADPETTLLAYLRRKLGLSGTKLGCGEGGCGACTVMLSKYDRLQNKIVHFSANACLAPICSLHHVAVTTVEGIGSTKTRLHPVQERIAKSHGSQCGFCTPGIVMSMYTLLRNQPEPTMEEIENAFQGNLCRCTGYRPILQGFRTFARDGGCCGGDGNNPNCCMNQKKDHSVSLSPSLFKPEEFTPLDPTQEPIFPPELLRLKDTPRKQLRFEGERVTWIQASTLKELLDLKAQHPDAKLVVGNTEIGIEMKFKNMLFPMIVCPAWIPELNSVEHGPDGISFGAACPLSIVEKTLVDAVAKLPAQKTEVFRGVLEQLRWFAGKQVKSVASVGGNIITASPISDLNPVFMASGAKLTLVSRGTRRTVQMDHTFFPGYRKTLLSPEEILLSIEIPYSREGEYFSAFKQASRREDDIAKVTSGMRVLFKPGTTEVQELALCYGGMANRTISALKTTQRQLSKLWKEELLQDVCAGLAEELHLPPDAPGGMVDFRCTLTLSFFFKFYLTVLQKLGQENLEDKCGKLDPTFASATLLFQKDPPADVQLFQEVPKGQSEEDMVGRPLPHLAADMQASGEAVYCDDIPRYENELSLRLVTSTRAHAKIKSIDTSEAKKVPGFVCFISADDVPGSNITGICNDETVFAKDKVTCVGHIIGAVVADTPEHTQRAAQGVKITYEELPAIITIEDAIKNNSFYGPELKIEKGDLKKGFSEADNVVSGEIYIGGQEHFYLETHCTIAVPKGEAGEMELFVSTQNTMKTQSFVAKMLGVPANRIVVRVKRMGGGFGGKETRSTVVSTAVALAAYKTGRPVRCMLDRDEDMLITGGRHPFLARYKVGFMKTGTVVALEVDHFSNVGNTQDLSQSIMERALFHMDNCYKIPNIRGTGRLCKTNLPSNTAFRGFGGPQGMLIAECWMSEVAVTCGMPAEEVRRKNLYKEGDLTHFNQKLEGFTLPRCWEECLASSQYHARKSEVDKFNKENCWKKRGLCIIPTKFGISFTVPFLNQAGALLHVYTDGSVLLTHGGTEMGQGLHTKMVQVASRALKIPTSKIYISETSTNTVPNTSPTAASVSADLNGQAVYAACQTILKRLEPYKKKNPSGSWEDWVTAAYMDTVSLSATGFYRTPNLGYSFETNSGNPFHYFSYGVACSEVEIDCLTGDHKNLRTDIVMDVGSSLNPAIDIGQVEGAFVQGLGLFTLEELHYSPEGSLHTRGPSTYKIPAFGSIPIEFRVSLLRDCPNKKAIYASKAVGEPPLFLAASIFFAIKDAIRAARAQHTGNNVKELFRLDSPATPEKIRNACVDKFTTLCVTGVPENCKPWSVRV

Row | Structure (SMILES) | IC50 (SK-BR-3 [1]) [µM] | IC50 (MDA-MB-231 [2]) [µM] | IC50 (MDA-MB-231 [3]) [µM] | IC50 (SK-BR-3 [4]) [µM] | inhibition at 12.5 µM (aromatase (CYP19)) [%] | inhibition at 50 µg/mL (MDA-MB-231 [5]) [%] | inhibition at 100 µM [6] [%] | DPPH %Inh [7] [%] | inhibition at 50 µg/mL (T47-D) [%] | melting point [°C] | inhibition at 500 µM (xanthine oxidase) [%] | IC50 [8] [µM] | XXO %Inh [8] [%] | IC50 (T47-D) [µM] | further results
1 | COc1c2occc2c(NC(=O)c2ccco2)c2ccc(=O)oc12 [3g, N-(9-Methoxy-7-oxo-7H-furo[3,2-g]chromen-4-yl)furan-2-carboxamide] | 2.71 ± 0.84 | > 100 | > 100 | > 100 | 16 | 0.5 | 17 | 3 | 24 | 227 to 228 | – | – | – | – | morphology of SK-BR-3 cells under light activation (SK-BR-3 cells): significantly changed; morphology of SK-BR-3 cells under dark condition (SK-BR-3 cells): maintained morphology of intact cells
2 | COc1c2occc2c(NC(C)=O)c2ccc(=O)oc12 [3i, N-(9-Methoxy-7-oxo-7H-furo[3,2-g]chromen-4-yl)acetamide] | – | – | – | – | 7 | 6 | 11 | 1 | 20 | 251 to 252 | 47 | – | – | – | –
3 | CCC(=O)Nc1c2ccoc2c(OC)c2oc(=O)ccc12 [3j, N-(9-Methoxy-7-oxo-7H-furo[3,2-g]chromen-4-yl)propionamide] | 3.05 ± 1.02 | > 100 | > 100 | > 100 | 8 | 3 | 11 | 2 | 22 | 233 to 234 | 29 | 187 | – | – | morphology of SK-BR-3 cells under light activation (SK-BR-3 cells): significantly changed; morphology of SK-BR-3 cells under dark condition (SK-BR-3 cells): maintained morphology of intact cells
4 | COc1c2occc2c(NC(=O)C(C)C)c2ccc(=O)oc12 [3k, N-(9-Methoxy-7-oxo-7H-furo[3,2-g]chromen-4-yl)isobutyramide] | 66.1 ± 5.21 | > 100 | > 100 | > 100 | 8 | 4 | 11 | 2 | 36 | 234 to 235 | 17 | 394 | – | – | –
5 | CCCCCC(=O)N(C(=O)CCCCC)c1c2ccoc2c(OC)c2oc(=O)ccc12 [3m, N-Hexanoyl-N-(9-methoxy-7-oxo-7H-furo[3,2-g]chromen-4-yl)hexanamide] | 27.1 ± 1.2 | > 100 | > 100 | > 100 | – | 5 | 0 | 1 | 15 | 170 to 171 | – | – | 2 | – | IC50 (aromatase (CYP19); read-out: Aromatase inhibitory activity IC50): 9.4 ± 0.4 µM
6 | COc1c2occc2c(NCc2ccccc2)c2ccc(=O)oc12 [4a, 4-(Benzylamino)-9-methoxy-7H-furo[3,2-g]chromen-7-one] | – | – | – | – | 46 | – | 7 | – | – | 168 to 169 | – | – | 34 | 31.1 ± 1.54 | IC50 (xanthine oxidase): 27.4 µM; IC50 (MDA-MB-231 [5]): > 100 µM; IC50 [7]: 145 µM; Selectivity Index (SI) (T47-D): > 5.0
7 | O=c1ccc2ccc3occc3c2o1 [angelicin] | – | – | – | – | – | – | – | – | – | – | – | – | – | – | IC50 [9]: 11 µM
8 | COc1c2occc2c(NS(=O)(=O)c2ccccc2)c2ccc(=O)oc12 [compound 5, N-(9-Methoxy-7-oxo-7H-furo[3,2-g]chromen-4-yl)benzenesulfonamide] | – | – | – | – | 33 | 36 | 32 | 8 | – | 208 to 209 | 21 | 90.7 | – | 87.9 ± 6.34 | Selectivity Index (SI) (T47-D): > 1.5
9 | COc1c2c(c(NC(=S)Nc3ccccc3)c3ccoc13)C(OC)CC(=O)O2 (centres unmarked) [compound 6, 1-(5,9-Dimethoxy-7-oxo-6,7-dihydro-5H-furo[3,2-g]chromen-4-yl)-3-phenylthiourea] | – | – | – | – | 18 | – | – | – | – | 191 to 192 | 48 | – | 24 | > 100 | IC50 (MDA-MB-231 [5]): 91.9 ± 4.49 µM; HL-60 Antiox. %Inh [6]: Toxic; IC50 [7]: 52.6 µM

From article PMC9356065, “Novel psoralen derivatives as anti-breast cancer agents and their light-activated cytotoxicity against HER2 positive breast cancer cells” (Scientific Reports, 2022)
